Patent US20240139221A1, “TREATMENT OF HPV-INDUCED NEOPLASIA” (priority 2022, published 2024)
Read-outs that look alike come from different tables or passages of the source.

Tests used:
[1] = Solubility in buffers, water and simulated vaginal fluid at 37° C.; conditions: for solubility at 0.5 h / solubility at 2 h: 37 °C, thermodynamic from solid; for pH of solution at 2 hrs: 37° C.
Method: About 4 mg of Compound I Pattern 1 was added into 2 mL of buffer solution.
(§1) Solubility was tested in five media, pH 3.0 citrate buffer, pH 4.5 acetate buffer, pH 6.8 phosphate buffer, water, simulated vaginal fluid (pH 4.2) at 37° C. for 0.5 h and 2 h.
The salt amount used is equivalent to 10 mg anhydrous free base. […] The obtained clear solutions were analyzed by pH meter for pH, and solubility was determined by observation.
as §1

[2] = Tablet stability study (purity by HPLC); assay type: physicochemical
Method: Tablets were prepared using the excipients and excipient ratios shown in the first column of the following tables. The tablets were then stored under the conditions indicated and periodically sampled and tested for purity by HPLC.

[3] = Approximate solubility in solvents at 25° C. and 50° C., visual observation; assay type: physicochemical; conditions: thermodynamic from solid
Method: The maximum volume of each solvent added was 1 mL. Approximate solubility was determined by visual observation.
Maximum volume of each solvent added was 1 mL. Approximate solubility was determined by visual observation.

[4] = Hygroscopicity by DVS at 25° C.; assay type: physicochemical; conditions: DVS 25° C.; for D. (%) Cycle 1: Desorption cycle 1; for D. (%) Cycle 2: Desorption cycle 2; for S. (%) Cycle 1: Sorption cycle 1; for S. (%) Cycle 2: Sorption cycle 2
Method: Hygroscopicity was investigated by DVS at 25° C., using the following method: […]

[5] = Behavior under compression, grinding simulation and granulation simulation (XRPD); assay type: physicochemical
Method: About 10 mg of Compound I monofumarate Pattern 1 (Example 7) was compressed for 5 minutes at 10 MPa with a hydraulic press. XRPD characterization was performed to investigate the polymorphic behavior under compression.
About 10 mg of Compound I monofumarate Pattern 1 (Example 7) was ground manually with a mortar and pestle for 5 min. Form transformation and degree of crystallinity was evaluated by XRPD.
Water or ethanol was added drop wise to about 10 mg of Compound I monofumarate Pattern 1 (Example 7) until solids were wetted sufficiently. The samples were ground manually with a mortar and pestle for 3 minutes. Samples are dried under ambient condition for 10 min. Form transformation and degree of crystallinity were evaluated by XRPD.

[6] = Bulk stability (accelerated stability, one week; HPLC and XRPD)
Method: Bulk stability: Accelerated stability experiments were conducted at 25° C./92% RH and 40° C./75% RH in an open container, 60° C. in a tight container for one week.
Samples were characterized by XRPD and HPLC and inspected for color change.
Accelerated stability experiments were conducted at 25° C./92% RH in an open container, at 40° C./75% RH in an open container, and at 60° C. in a tight container for one week.

[7] = pH 4.2, fassgf or other biorelevant
[8] = excipients PC (7.5%) + MCC (91.46%) + MgS (1%)
[9] = excipients PC (7.5%) + Mannitol (91.46%) + MgS (1%)
[10] = excipients PEO-15 (25%) + MCC (74%) + MgS (1%)
[11] = excipients PEO-15 (25%) + Mannitol (74%) + MgS (1%)
[12] = ground manually with mortar and pestle for 5 min
[13] = 25° C., 92% RH, open container, one week
[14] = 40° C., 75% RH, open container, one week
[15] = 60° C., tight container, one week

CCOC(=O)[C@H](C)NP(=O)(COCCn1cnc2c(OC)nc(N)nc21)OCc1ccccc1.O=C(O)/C=C/C(=O)O (mixture of isomers) [Compound I monofumarate, (±)-(2S)-Ethyl-2-((((2-(2-amino-6-methoxy-9H-purin-9-yl)-ethoxy)-methyl)-(benzyloxy)-phosphoryl)-amino)-propionate monofumarate]
solubility at 0.5 h ([1]; pH 3, aqueous buffer): > 2 mg/mL | solubility at 2 h ([1]; pH 3, aqueous buffer): > 2 mg/mL | solubility at 0.5 h [1, 7]: > 2 mg/mL | solubility at 2 h [1, 7]: > 2 mg/mL | solubility at 0.5 h ([1]; pH 4.5, aqueous buffer): > 2 mg/mL | solubility at 2 h ([1]; pH 4.5, aqueous buffer): > 2 mg/mL | solubility at 0.5 h ([1]; pH 6.8, aqueous buffer): > 2 mg/mL | solubility at 2 h ([1]; pH 6.8, aqueous buffer): > 2 mg/mL | solubility at 0.5 h ([1]; water): > 2 mg/mL | solubility at 2 h ([1]; water): > 2 mg/mL | pH of solution at 2 hrs ([1]; Simulated vaginal fluid (pH adjusted with 0.2N NaOH)): (5.39) | pH of solution at 2 hrs ([1]; Water): (3.11) | pH of solution at 2 hrs ([1]; pH 3.0 100 mM citrate buffer): (3.05) | pH of solution at 2 hrs ([1]; pH 4.5 50 mM acetate buffer): (4.36) | pH of solution at 2 hrs ([1]; pH 6.8 50 mM phosphate buffer): (6.49) | purity by HPLC, 0 months [2, 8]: 99.81 | purity by HPLC, 1 month 25 C./60% RH [2, 8]: 98.04 | purity by HPLC, 1 month 40 C./75% RH [2, 8]: 84.92 | purity by HPLC, 0 months [2, 9]: 99.61 | purity by HPLC, 1 month 25 C./60% RH [2, 9]: 98.77 | purity by HPLC, 1 month 40 C./75% RH [2, 9]: 85.26 | purity by HPLC, 0 months [2, 10]: 99.03 | purity by HPLC, 1 month 25 C./60% RH [2, 10]: 97.76 | purity by HPLC, 1 month 40 C./75% RH [2, 10]: 83.13 | purity by HPLC, 0 months [2, 11]: 97.95 | purity by HPLC, 1 month 25 C./60% RH [2, 11]: 97.04 | purity by HPLC, 1 month 40 C./75% RH [2, 11]: 87.09 | solubility ([3]; 25 °C, organic solvent or mixture, Table 14, ACN, 25° C., read-out: Solubility (mg/mL) 25° C.): 20 to 25 mg/mL | solubility ([3]; 25 °C, organic solvent or mixture, Table 14, Acetone, 25° C., read-out: Solubility (mg/mL) 25° C.): 50 to 100 mg/mL | solubility ([3]; 25 °C, organic solvent or mixture, Table 14, DCM, 25° C., read-out: Solubility (mg/mL) 25° C.): < 2 mg/mL | solubility ([3]; 25 °C, organic solvent or mixture, Table 14, EA, 25° C., read-out: Solubility (mg/mL) 25° C.): < 2 mg/mL | solubility ([3]; 25 °C, organic solvent or mixture, Table 14, EtOH, 25° C., read-out: Solubility (mg/mL) 25° C.): > 100 mg/mL | solubility ([3]; 25 °C, organic solvent or mixture, Table 14, Heptanes, 25° C., read-out: Solubility (mg/mL) 25° C.): < 2 mg/mL | solubility ([3]; 25 °C, organic solvent or mixture, Table 14, IPA, 25° C., read-out: Solubility (mg/mL) 25° C.): 50 to 100 mg/mL | solubility ([3]; 25 °C, organic solvent or mixture, Table 14, IPAc, 25° C., read-out: Solubility (mg/mL) 25° C.): < 2 mg/mL | solubility ([3]; 25 °C, organic solvent or mixture, Table 14, MEK, 25° C., read-out: Solubility (mg/mL) 25° C.): 20 to 25 mg/mL | solubility ([3]; 25 °C, organic solvent or mixture, Table 14, MTBE, 25° C., read-out: Solubility (mg/mL) 25° C.): < 2 mg/mL | solubility ([3]; 25 °C, organic solvent or mixture, Table 14, MeOH, 25° C., read-out: Solubility (mg/mL) 25° C.): > 100 mg/mL | solubility ([3]; 25 °C, organic solvent or mixture, Table 14, THF, 25° C., read-out: Solubility (mg/mL) 25° C.): > 100 mg/mL | solubility ([3]; 25 °C, organic solvent or mixture, Table 14, Toluene, 25° C., read-out: Solubility (mg/mL) 25° C.): < 2 mg/mL | solubility ([3]; 25 °C, water, Table 14, Water, 25° C., read-out: Solubility (mg/mL) 25° C.): 14 to 17 mg/mL | solubility ([3]; 50 °C, organic solvent or mixture, Table 14, ACN, 50° C., read-out: Solubility (mg/mL) 50° C.): 20 to 33 mg/mL | solubility ([3]; 50 °C, organic solvent or mixture, Table 14, Acetone, 50° C., read-out: Solubility (mg/mL) 50° C.): 125 to 167 mg/mL | solubility ([3]; 50 °C, organic solvent or mixture, Table 14, DCM, 50° C., read-out: Solubility (mg/mL) 50° C.): < 10 mg/mL | solubility ([3]; 50 °C, organic solvent or mixture, Table 14, EA, 50° C., read-out: Solubility (mg/mL) 50° C.): < 10 mg/mL | solubility ([3]; 50 °C, organic solvent or mixture, Table 14, EtOH, 50° C., read-out: Solubility (mg/mL) 50° C.): 250 to 500 mg/mL | solubility ([3]; 50 °C, organic solvent or mixture, Table 14, Heptanes, 50° C., read-out: Solubility (mg/mL) 50° C.): < 10 mg/mL | solubility ([3]; 50 °C, organic solvent or mixture, Table 14, IPA, 50° C., read-out: Solubility (mg/mL) 50° C.): 71 to 84 mg/mL | solubility ([3]; 50 °C, organic solvent or mixture, Table 14, IPAc, 50° C., read-out: Solubility (mg/mL) 50° C.): < 10 mg/mL | solubility ([3]; 50 °C, organic solvent or mixture, Table 14, MEK, 50° C., read-out: Solubility (mg/mL) 50° C.): 22 to 25 mg/mL | solubility ([3]; 50 °C, organic solvent or mixture, Table 14, MTBE, 50° C., read-out: Solubility (mg/mL) 50° C.): < 10 mg/mL | solubility ([3]; 50 °C, organic solvent or mixture, Table 14, MeOH, 50° C., read-out: Solubility (mg/mL) 50° C.): > 500 mg/mL | solubility ([3]; 50 °C, organic solvent or mixture, Table 14, THF, 50° C., read-out: Solubility (mg/mL) 50° C.): 250 to 500 mg/mL | solubility ([3]; 50 °C, organic solvent or mixture, Table 14, Toluene, 50° C., read-out: Solubility (mg/mL) 50° C.): < 10 mg/mL | solubility ([3]; 50 °C, water, Table 14, Water, 50° C., read-out: Solubility (mg/mL) 50° C.): 22 to 25 mg/mL | D. (%) Cycle 1 ([4]; 0% RH): 0.49% | D. (%) Cycle 1 ([4]; 10% RH): 0.62% | D. (%) Cycle 1 ([4]; 20% RH): 0.71% | D. (%) Cycle 1 ([4]; 30% RH): 0.81% | D. (%) Cycle 1 ([4]; 40% RH): 0.93% | D. (%) Cycle 2 ([4]; 0% RH): 0.09% | D. (%) Cycle 2 ([4]; 10% RH): 0.15% | D. (%) Cycle 2 ([4]; 20% RH): 0.35% | D. (%) Cycle 2 ([4]; 30% RH): 0.47% | D. (%) Cycle 2 ([4]; 40% RH): 0.56% | D. (%) Cycle 2 ([4]; 50% RH): 0.67% | D. (%) Cycle 2 ([4]; 60% RH): 0.85% | D. (%) Cycle 2 ([4]; 70% RH): 1.04% | D. (%) Cycle 2 ([4]; 80% RH): 1.30% | D. (%) Cycle 2 ([4]; 90% RH): 1.84% | D. (%) Cycle 2 ([4]; 95% RH): 2.89% | S. (%) Cycle 1 ([4]; 0% RH): 0.49% | S. (%) Cycle 1 ([4]; 10% RH): 0.56% | S. (%) Cycle 1 ([4]; 20% RH): 0.66% | S. (%) Cycle 1 ([4]; 30% RH): 0.76% | S. (%) Cycle 1 ([4]; 40% RH): 0.86% | S. (%) Cycle 1 ([4]; 50% RH): 0.71% | S. (%) Cycle 1 ([4]; 60% RH): 0.85% | S. (%) Cycle 1 ([4]; 70% RH): 1.02% | S. (%) Cycle 1 ([4]; 80% RH): 1.27% | S. (%) Cycle 1 ([4]; 90% RH): 1.78% | S. (%) Cycle 1 ([4]; 95% RH): 2.89% | S. (%) Cycle 2 ([4]; 0% RH): 0.09% | S. (%) Cycle 2 ([4]; 10% RH): 0.18% | S. (%) Cycle 2 ([4]; 20% RH): 0.27% | S. (%) Cycle 2 ([4]; 30% RH): 0.37% | S. (%) Cycle 2 ([4]; 40% RH): 0.47% | water uptake ([4]; up to 95% RH): about 2.9% | degree of crystallinity on grinding (XRPD) [5, 12]: crystallinity slightly decreased | form transformation on grinding (XRPD) [5, 12]: no form change was observed | form transformation on granulation simulation (XRPD) ([5]; wetted with water or ethanol, ground 3 minutes, dried 10 min): neither in ethanol, nor in water form change was observed | XRPD after storage ([6]; 25° C., 84% RH, open container, 2 days): No change | HPLC (purity) after storage [6, 13]: 98.2% | XRPD after storage [6, 13]: No change | HPLC (purity) after storage [6, 14]: 95.6% | XRPD after storage [6, 14]: No change | HPLC (purity) after storage [6, 15]: 95.5% | XRPD after storage [6, 15]: No change | HPLC (purity), Initial ([6]; initial, before storage): 98.6%
